Tests used:
Experiment in all cases: MIC / synergy test of MIT and IPBC mixtures in Sabouraud maltose broth
Assay type in all cases: cell-based
Saccharomyces cerevisiae = conditions: for MIC at IPBC concentration Qb: IPBC part of the MIC pair; for MIC value: biocide used alone; for Synergy index Qa/QA + Qb/QB: method of Kull et al.; for MIC at MIT concentration Qa: MIT part of the MIC pair
Experimental: For that purpose, aqueous mixtures with different concentrations of 2-methylisothiazolin-3-one (MIT) and 3-iodo-2-propynyl-N-butylcarbamate (IPBC) were produced and the effects of those mixtures on Saccharomyces cerevisiae were tested.
In addition to the biocide components and water, the aqueous mixtures also contained a nutrient medium, specifically a Sabouraud maltose broth (trade product “Merck No. 10393”). The cell density of Saccharomyces cerevisiae was 10^6 cells/ml. The incubation time was 72 hours at 25° C. Each sample was incubated at 120 r.p.m. on an incubation shaker.
(§1) The calculation of the synergy index is performed according to the method by F. C. Kull et al., Applied Microbiology, vol. 9 (1961), p. 538. The synergy index is calculated here using the following formula: Synergy index SI=Qa/QA+Qb/QB.
(§2) When this formula is used for the biocide system tested here, the variables in the formula have the following meaning: • […]=Concentration of MIT in biocide mixture of MIT and IPBC • QA=Concentration of MIT as the only biocide • Qb=Concentration of IPBC in biocide mixture of MIT and IPBC • QB=Concentration of IPBC as the only biocide
(§3) When the synergy index has a value of less than 1, that means that a synergy of the two biocides exists.
Example 1 was repeated with the change that the incubation time was 96 hours instead of 72 hours.

Aspergillus niger = conditions: 96 hours; for MIC value: biocide used alone; for Synergy index Qa/QA + Qb/QB: method of Kull et al.
Experimental: as §1, §2, §3
(§4) The test arrangements again included a Sabouraud maltose broth as culture medium. The cell density was 10^6 cells/ml. The incubation time was 96 hours at 25° C. Every sample was incubated at 120 r.p.m. on an incubation shaker.

Candida valida = conditions: 96 hours; for MIC value: biocide used alone; for Synergy index Qa/QA + Qb/QB: method of Kull et al.
Experimental: as §1, §2, §3, §4

Penicillium funiculosum = conditions: for MIC at IPBC concentration Qb: IPBC part of the MIC pair; for MIC value: biocide used alone; for Synergy index Qa/QA + Qb/QB: method of Kull et al.; for MIC at MIT concentration Qa: MIT part of the MIC pair
Experimental: as §1, §2, §3
The test arrangement again included a Sabouraud maltose broth as culture medium. The cell density was 10^6 germs/ml. The incubation time was 72 hours at 25° C. Every sample was incubated at 120 r.p.m. on an incubation shaker.
Example 5 was repeated with the change that the incubation time was 96 hours instead of 72 hours.

| SMILES | MIC value (Saccharomyces cerevisiae; 72 hours) [ppm] | Synergy index Qa/QA + Qb/QB (Saccharomyces cerevisiae; 72 hours) | MIC value (Saccharomyces cerevisiae; 96 hours) [ppm] | Synergy index Qa/QA + Qb/QB (Saccharomyces cerevisiae; 96 hours) | MIC value (Aspergillus niger) [ppm] | Synergy index Qa/QA + Qb/QB (Aspergillus niger) | MIC value (Candida valida) [ppm] | Synergy index Qa/QA + Qb/QB (Candida valida) | MIC value (Penicillium funiculosum; 72 hours) [ppm] | Synergy index Qa/QA + Qb/QB (Penicillium funiculosum; 72 hours) | MIC value (Penicillium funiculosum; 96 hours) [ppm] | Synergy index Qa/QA + Qb/QB (Penicillium funiculosum; 96 hours) | also measured |
| --- | --- | --- | --- | --- | --- | --- | --- | --- | --- | --- | --- | --- | --- |
| CCCCNC(=O)OCC#CI [IPBC, 3-iodo-2-propynyl-N-butylcarbamate] | 10 | 1.00 | 10 | 1.00 | 5 | 1.00 | 2.5 | 1.00 | 1.5 | 1.00 | 1.5 | 1.00 | MIC at IPBC concentration Qb (Saccharomyces cerevisiae; 72 hours): 10 ppm; MIC at IPBC concentration Qb (Saccharomyces cerevisiae; 96 hours): 10 ppm; MIC at IPBC concentration Qb (Aspergillus niger; IPBC part of the MIC pair): 5 ppm; MIC at IPBC concentration Qb (Candida valida; IPBC part of the MIC pair): 2.5 ppm; MIC at IPBC concentration Qb (Penicillium funiculosum; 72 hours): 1.5 ppm; MIC at IPBC concentration Qb (Penicillium funiculosum; 96 hours): 1.5 ppm |
| Cn1sccc1=O [MIT, 2-methylisothiazolin-3-one] | 150 | 1.00 | 150 | 1.00 | 750 | 1.00 | 75 | 1.00 | 200 | 1.00 | 200 | 1.00 | MIC at MIT concentration Qa (Saccharomyces cerevisiae; 72 hours): 150 ppm; MIC at MIT concentration Qa (Saccharomyces cerevisiae; 96 hours): 150 ppm; MIC at MIT concentration Qa (Aspergillus niger; MIT part of the MIC pair): 750 ppm; MIC at MIT concentration Qa (Candida valida; MIT part of the MIC pair): 75 ppm; MIC at MIT concentration Qa (Penicillium funiculosum; 72 hours): 200 ppm; MIC at MIT concentration Qa (Penicillium funiculosum; 96 hours): 200 ppm |
